From patent US20260207708A1, “THERAPEUTIC USES OF ADIPOSE-SECRETED SIGNALING PROTEIN (ADISSP)” (UNIVERSITY OF MASSACHUSETTS, priority 2023, published 2026)
Like-named read-outs stand apart in the source and are kept apart here.

Tests used:
[1] = tested on: Akt; experiment: Akt activation in serum-starved brown adipocytes; format: cell-based; details: for blocking of Akt activation by ADISSP: adipocytes pre-treated with inhibitor 2 hr: S961 0.5 μM, Melittin 1 μM, Gallein 5 μM, wortmannin 1 μM, LDC1267 1 μM, then ADISSP 300 nM 30 min
Procedure: (§1) In some cases adipocytes were pre-treated with inhibitors for 2 hr: S961 (0.5 μM), Melittin (1 μM), Gallein (5 μM), wortmannin (1 μM), and LDC1267 (1 μM).

[2] = tested on: Glut4; experiment: Glut4 trafficking to the plasma membrane in Myc-Glut4-GFP transfected adipocytes; format: cell-based; details: adipocytes serum-starved overnight, treated 30 min; for Glut4 localization to the plasma membrane: Myc staining without permeabilization
Procedure: To evaluate effects of ADISSP on Glut4 trafficking to the plasma membrane, adipocytes were transfected with a Myc-Glut4-GFP plasmid, in which Myc and GFP were fused to the extracellular and intracellular regions of Glut4, respectively. The Adipocytes were serum-starved overnight, and then treated with purified ADISSP protein or insulin for 30 min. The adipocytes were fixed without permeabilization, and stained with Myc antibody and DAPI. […] 95% of GFP-positive cells were also Myc-positive after either ADISSP or insulin treatment, while very few GFP-positive cells were Myc-positive in control samples.

[3] = tested on: insulin receptor substrate 1 (IRS1); experiment: IRS1 activation in serum-starved brown adipocytes; format: cell-based; details: ADISSP 300 nM, 30 min
Procedure: as §1

[4] = tested on: tyrosine phosphorylation; experiment: Tyrosine phosphorylation in serum-starved brown adipocytes; format: cell-based; details: ADISSP 300 nM, 30 min
Procedure: as §1

[5] = tested on: euglycemic mice; format: in vivo; details: 70 nmole/kg ip, 3 hr after injection
Procedure: (§2) To explore the mechanism of ADISSP action in vivo, 3-month-old male mice (n=4/group) with euglycemia were intraperitoneally (ip) injected with purified ADISSP protein (70 nmole/kg) at 0 hr. Glucose and insulin levels and Akt activation were measured 3 hr after injection.

[6] = tested on: Akt; experiment: Akt activation in adipose tissue in vivo after single ip dose; parameters: species or system mice; details: 70 nmole/kg ip, 3 hr after injection
Procedure: as §2

[7] = tested on: ob/ob mice; experiment: ob/ob mice, single dose then once every 48 hours; format: in vivo
Procedure: The effects of injection of purified ADISSP protein were evaluated on hyperglycemia, hyperinsulinemia, and liver steatosis in ob/ob mice (6 male and 9 female mice in control group and 5 male and 10 female mice in treatment group), which were used as a type 2 diabetic mouse model. The mice were injected intraperitoneally with vehicle or a single dose of purified ADISSP protein (50 nmole/kg). Glucose was monitored for 46 hours. Note, no food was provided in the first 8 hours. […] The glucose-lowering effect of ADISSP protein was not due to any difference of food intake, as there was no food provided in the first 8 hours. 46 hours post the first injection, ob/ob mice were injected with ADISSP (50 nmole/kg) once every 48 hour at 8 am (arrow). Mice were fed ad libitum.

[8] = tested on: ob/ob mice; format: in vivo
Procedure: To evaluate longer-term effects of treatment with ADISSP, 12-week ob/ob mice (6 male and 8 female mice in control group and 8 male and 8 female mice in treatment group) were used. Glucose levels were measured at 7 am daily. Vehicle or ADISSP protein (62.6 nmole/kg per day) was ip injected once a day at 8 am for 30 days. […] In addition, after one-month treatment of ob/ob mice with ADISSP protein, bone density was examined by X-Ray. […] Instead, a slight increase was observed, as shown in the region in the box in FIG. 7G. Loss of bone density is associated with FGF21 and diabetes drug TZDs.

[9] = tested on: DIO mice; experiment: Two-week treatment of high fat-induced obese (DIO) mice; format: in vivo; details: 65 nmole/kg ip once a day, 14 injections
Procedure: In the experiment shown in FIGS. 7A-G, all daily glucose levels were measured 24-hr post ADISSP injection. A much stronger glucose reduction would have been observed if measured at earlier time points, e.g., at 6-hr or 12-hr following protein injection. […] Male mice (n=19 mice/group) were fed a high fat diet for 20 weeks to render them obese and hyperglycemia. Mice were then ip injected with ADISSP protein (65 nmole/kg) once a day at 8 am for a total of 14 injections. Glucose levels at ad libitum state were measured at 7:30 am, […]. Insulin levels and livers were examined.

[10] = tested on: DIO mice; format: in vivo; details: 71 nmole/kg per day ip, one month
Procedure: We next performed a one-month treatment of hyperglycemic DIO mice (n=19-20 DIO mice/group) with purified ADISSP protein. Glucose levels were measured every day at 7:30 am followed by daily intraperitoneal injection of ADISSP (71 nmole/kg per day). […] Hypertriglyceridemia (FIG. 9J) and high level of Aspartate aminotransferase (AST) (indicative of liver damage caused by fatty liver) (FIG. 9K) were normalized as well.

[11] = tested on: STZ-induced type 1 diabetic mice; experiment: High-dose streptozotocin (STZ)-induced type 1 diabetic mice; format: in vivo, C57BL6 mice; details: STZ 200 mg/kg single dose, ADISSP 50 nmole/kg ip at 0 hr and 24 h
Procedure: (§3) The effects of ADISSP protein administration on blood glucose and polyuria were evaluated in streptozotocin (STZ)-induced type 1 diabetic mice. A single dose (200 mg/kg) of STZ was ip injected into C57BL6 mice. Eight days post injection, as expected, high-dose STZ caused extremely severe type 1 diabetes with ad libitum glucose level (>600 mg/dL) exceeding the upper limit of the glucose meter. The mice were ip injected with ADISSP protein (50 nmole/kg) or vehicle at 0 hr and 24 h. After each injection, mice were fasted for 6 hours before glucose measurement so the glucose level in the vehicle group would fall below 600 mg/dL. […] We were not able to continue the experiment because the mice were not healthy due to the high dose of STZ. To account for this, a low dose (50 mg/kg) of STZ was injected daily from Day 1 to Day 5 to produce healthy, type 1 diabetes mice. From Day 13, glucose was measured at 7:30 am followed by ip injection of ADISSP protein (70 nmole/kg) or vehicle once a day at 8 am for two weeks. At Day 13, glucose was measured after 2 hour fasting, all other time points were measured at ad libitum state.

[12] = tested on: STZ-induced type 1 diabetic mice; experiment: Low-dose streptozotocin (STZ)-induced type 1 diabetic mice; format: in vivo; details: STZ 50 mg/kg daily Day 1 to Day 5
Procedure: as §3

[13] = tested on: GAN diet NASH mice; experiment: Gubra Amylin NASH (GAN) diet mice: NASH and cardiac hypertrophy; format: in vivo, C57BL6J mice
Excerpt: To examine the potential effects of Adissp protein on NASH, we fed wild-type male C57BL6J mice with the Gubra Amylin NASH (GAN) diet (Research Diets, D09100310) for 32 weeks to induce a NASH phenotype resembling human NASH. We then treated these mice with Adissp (113 nmole/kg per day) or vehicle. […] At Day 16 of the treatment, a sub-group of mice were sacrificed and NASH phenotype was examined. […] Thus, treatment with Adissp protein rapidly resolved the NASH phenotype.
The remaining mice were continuously treated with 63 nmole/kg per day Adissp protein or vehicle for 31 days.

[14] = 62.6 nmole/kg per day ip, 30 days
[15] = 113 nmole/kg per day, Day 16 of treatment

CCOc1cn(-c2ccc(F)cc2C)nc1C(=O)Nc1ccc(Oc2ccnc3cc(OC)c(OC)cc23)c(F)c1 [LDC1267]
blocking of Akt activation by ADISSP [1]: blocks

O=C1OC2(c3ccccc31)c1ccc(O)c(O)c1Oc1c2ccc(O)c1O [Gallein]
blocking of Akt activation by ADISSP [1]: not blocked

CC[C@H](C)[C@H](NC(=O)CN)C(=O)NCC(=O)N[C@@H](C)C(=O)N[C@H](C(=O)N[C@@H](CC(C)C)C(=O)N[C@@H](CCCCN)C(=O)N[C@H](C(=O)N[C@@H](CC(C)C)C(=O)N[C@H](C(=O)N[C@H](C(=O)NCC(=O)N[C@@H](CC(C)C)C(=O)N1CCC[C@H]1C(=O)N[C@@H](C)C(=O)N[C@@H](CC(C)C)C(=O)N[C@H](C(=O)N[C@@H](CO)C(=O)N[C@@H](Cc1c[nH]c2ccccc12)C(=O)N[C@H](C(=O)N[C@@H](CCCCN)C(=O)N[C@@H](CCCNC(=N)N)C(=O)N[C@@H](CCCCN)C(=O)N[C@@H](CCCNC(=N)N)C(=O)N[C@@H](CCC(N)=O)C(=O)N[C@@H](CCC(N)=O)C(N)=O)[C@@H](C)CC)[C@@H](C)CC)[C@@H](C)O)[C@@H](C)O)C(C)C)C(C)C [Melittin]
blocking of Akt activation by ADISSP [1]: not blocked

insulin [reference compound]
GFP-positive cells also Myc-positive [2]: 95%
Glut4 localization to the plasma membrane [2]: induced Glut4 localization to the plasma membrane

ADISSP: recombinant adipose-secreted signaling protein with C-terminal His-tag, purified from medium of transfected Expi293F cells
Akt activation ([1]; serum-starved brown adipocytes, ADISSP 300 nM, 30 min): activates Akt independently of insulin receptor
activation of insulin receptor substrate 1 (IRS1) [3]: did not activate
tyrosine phosphorylation [4]: induces a bulk of tyrosine phosphorylation
GFP-positive cells also Myc-positive [2]: 95%
Glut4 localization to the plasma membrane [2]: induced Glut4 localization to the plasma membrane
insulin secretion [5]: did not stimulate insulin secretion
blood glucose level ([5]; 3-month-old male mice): lowers blood glucose level
Akt activation in vivo (BAT, iWAT, eWAT) [6]: activated Akt in vivo
duration of glucose-lowering effect after each subsequent injection ([7]; 50 nmole/kg once every 48 hour): at least 48 hours
hyperinsulinemia ([7]; 50 nmole/kg once every 48 hour): improvement in hyperinsulinemia
glucose lowered on average ([7]; 50 nmole/kg once every 48 hour, fed ad libitum): 83.5 mg/dL
liver steatosis ([7]; 50 nmole/kg once every 48 hour, liver colour and histology): improved
hyperglycemia ([7]; injection once every 48 hours): sufficient to normalize hyperglycemia
onset of glucose lowering ([7]; post injection): two
duration of glucose-lowering effect of a single dose ([7]; single dose 50 nmole/kg ip): more than 20 hours
body weight gain [8, 14]: reduced body weight gain
glucose tolerance [8, 14]: improved glucose tolerance
insulin sensitivity [8, 14]: improved
liver steatosis [8, 14]: ameliorated liver steatosis
hyperglycemia (daily glucose levels) ([8]; 62.6 nmole/kg per day ip, 30 days, glucose measured 24-hr post injection): normalized hyperglycemia
bone density by X-Ray ([8]; mouse, in vivo): did not see decreased bone density. Instead, a slight increase was observed
fatty liver [9]: amelioration of fatty liver
hyperinsulinemia [9]: reduced hyperinsulinemia
liver weight [9]: reduction of liver weight
daily glucose levels ([9]; ad libitum, 6 hr, 12 hr and 24 hr from injection): clear improvement in daily glucose levels
Aspartate aminotransferase (AST) level [10]: normalized
body weight [10]: decreased body weight
fat mass [10]: reduction of fat mass
fatty liver [10]: completely reversed fatty liver
glucose tolerance [10]: markedly improved
hyperglycemia (daily glucose levels) [10]: completely normalized hyperglycemia
hypertriglyceridemia (serum triglycerides) [10]: normalized
insulin sensitivity [10]: markedly improved
lean mass [10]: but not lean mass
liver weight [10]: normalized liver weight
surface body temperature [10]: higher surface body temperature
polyuria [11]: improvement in polyuria
decrease of glucose levels ([11]; 6 hours fasted after each injection): 41-48%
polyuria ([12]; ADISSP 70 nmole/kg ip once a day for two weeks): improved polyuria
blood glucose ([12]; ADISSP 70 nmole/kg ip once a day for two weeks from Day 13): markedly lowered blood glucose
fibrosis (Sirius Red staining) [13, 15]: greatly alleviated
hepatomegaly (liver size and weight) [13, 15]: ameliorated
inflammation [13, 15]: ameliorated
steatosis [13, 15]: ameliorated
hyperglycemia (blood glucose) ([13]; GAN diet 32 weeks, 113 nmole/kg per day): normalized hyperglycemia
cardiac hypertrophy (heart weight and size) ([13]; remaining mice continued at 63 nmole/kg per day for 31 days): resolved high fat diet-induced cardiac hypertrophy
